The values that follow are results of earlier work, collected in PMC4801399, “Impact of a CXCL12/CXCR4 Antagonist in Bleomycin (BLM) Induced Pulmonary Fibrosis and Carbon Tetrachloride (CCl4) Induced Hepatic Fibrosis in Mice” (PLoS ONE, 2016).

The subject of one data set is BLM induced PF. The settings on record: cited from earlier work.
A further data set deals with liver fibrosis. The settings on record: cited from earlier work.

Take `c1cc(CN2CCCNCCNCCCNCC2)ccc1CN1CCCNCCNCCCNCC1` [AMD3100]: in the data set on BLM induced PF (3 and 7 days post BLM treatment), the “number of fibrocytes in the lung” value is given as “decreased”. Moreover, the “mortality associated with BLM induced PF” value in the data set on BLM induced PF is on record as “alleviate”. Moreover, in the data set with BLM induced PF (murine model of BLM induced PF), the “lung fibrosis and fibrocyte infiltration into the lung” value is given as “reduce”. In the data set with liver fibrosis, the liver fibrosis entry is given as “increased”; the “transcript levels of Acta2 and Col1a1” value is listed as “increased”.
